Results from patent publication US4230719A, “Novel 2-[4-(3-methyl-2-thienyl)phenyl]propionic acid and pharmaceutically acceptable salt thereof and method for treating symptoms of inflammation and pain” (Toyama Chemical Co., Ltd., priority 1977, dated 1980).
Like-named read-outs stand apart in the source and are kept apart here.

Legend:
Vascular permeability [1] = assay: Vascular permeability in mice (Whittle's method); assay type: in vivo, mouse (ddY strain, male); conditions: for Inhibition: dye leakage; for ED30: po, mouse, read-out: ED30
Description: (i) Vascular permeability in mice (Whittle's method)
The test compound was orally administered to each ddY strain male mouse (weighing each about 20 g). After 20 minutes, 0.1 ml/10 g of a 4%(Wt/V) solution of Pontamine Sky Blue in physiological saline was intravenously injected and 10 minutes thereafter 0.1 ml/10 g of a 0.7%(V/V) solution of acetic acid in physiological saline was injected intraperitoneally. After 30 minutes, the mice were killed by suffocation with chloroform. After immediate laparotomy, the dye leaked into the peritoneal cavity was washed out with distilled water. The washings were made up with water to 30 ml and the absorbance at 620 mμ was measured. The amount of leaked dye per 20 g of mouse weight was compared.

Vascular permeability [2] = assay: Vascular permeability in rat (Whittle's method); assay type: in vivo, rat (Wistar strain, male); conditions: for ED30: po, rat, read-out: ED30
Description: (ii) Vascular permeability in rat (Whittle's method)
The test compound was orally administered to each Wistar strain male rat (weighing about 150 g) which had been fasted overnight. After 55 minutes, 0.5 ml of a 0.5% Evans Blue solution was intravenously injected. Five minutes thereafter, 0.2 ml/100 g of a 3%(V/V) acetic acid solution was intraperitoneally injected. After 60 minutes from the injection of the acetic acid solution, the rats were killed by suffocation with chloroform. After immediate laparotomy, the dye leaked into the peritoneal cavity was washed out with physiological saline. The washings were made up with the saline to 30 ml and the absorbance at 640 mμ was measured to examine the effect of the test compounds by comparing the amounts of leaked dye per rat with one another.

[3] = system: Carrageenin-induced edema; assay: Carrageenin-induced edema; assay type: in vivo, rat (Donryu strain, male); conditions: Rattus norvegicus, po, mean in 5 hours, read-out: Inhibitory percent of swelling; for inhibition in vivo at 1 mg/kg: 1 mg/kg p.o.; for inhibition in vivo at 5 mg/kg: 5 mg/kg p.o.
Description: (iii) Carrageenin-induced edema
Each of the 6 Donryu strain male rats per group (each weighing about 140 g), which had been fasted overnight, was orally loaded with 4 ml of water and, after 30 minutes, the test compound was orally administered thereto. Thirty minutes thereafter, a 1%(Wt/V) solution of carrageenin in physiological saline was subcutaneously injected into the subplantar region of the left hind paw. At a time interval of one hour, starting from the end of the first hour till the end of the fifth hour after injection of carrageenin, the paw volume was measured by means of a manometer and pressure transducer. By comparison with the percent increase in swelling of the control group of rats to which a 0.5%(V/V) solution of Tween 80 had been administered, the mean inhibitory percent in 5 hours of swelling was calculated by the following equation: [formula]

Adjuvant arthritis = assay: Adjuvant arthritis; assay type: in vivo, rat (Sprague-Dawley strain, male); conditions: 1 mg/kg p.o./day, mean during one week
Description: A suspension containing 6 mg/ml of killed and dried Mycobacterium butyricum in liquid paraffin was subcutaneously injected into the subplantar region of the left hind paw of Sprague-Dawley strain male rats (weighing 180 to 200 g) in a proportion of 0.1 ml/rat. After 14 days, the rats having inflammatory paws of similar volumes were selected and the test compound was orally administered to the rats repeatedly at the rate shown in Table 4 during one week and the mean inhibitory percent of swelling during one week was determined.

[4] = system: phenylbenzoquinone writhing; assay: Analgesic activity, phenylbenzoquinone method in mouse; assay type: in vivo, mouse (ddY strain, male); conditions: for Frequency of writhing, mean ± S.E.: during 10 minutes; for inhibition in vivo at 5 mg/kg / inhibition in vivo at 10 mg/kg / inhibition in vivo at 20 mg/kg: Mus musculus, 10 min, writhing, read-out: Inhibition; for inhibition in vivo at 5 mg/kg / inhibition in vivo at 10 mg/kg / inhibition in vivo at 20 mg/kg / ED50: po; for ED50: mouse, read-out: ED50
Description: (i) Phenylbenzoquinone method in mouse
The test compound was orally administered to each ddY strain male mouse (weighing 22±2 g; 8 mice per group). […] The frequency of writhing during 10 minutes from 5-minutes after the injection of phenylbenzoquinone was measured and compared with that of a control group to which a 0.5% Tween 80 solution was administered. The percent inhibition was calculated by the following equation: [formula]

[5] = system: pain threshold (brewer's yeast, hind paw); assay: Analgesic activity, Randall-Selitto method in rat; assay type: in vivo, rat (Wistar strain, male); conditions: for Inhibition: 100% = pain threshold raised by 150 g; for ED50: po, rat, read-out: ED50
Description: (ii) Randall-Selitto method in rat
After one hour, the test compound was orally administered. One hour thereafter, the pain threshold value was measured four times at a time interval of one hour. The mean value of four values obtained was taken as the pain threshold value of each group of rats. The activity of the drug was assumed to be 100% when the pain threshold value was raised by 150 g.

[6] = system: Phenol Red (PSP) excretion; assay: Uricosuric action (a), inhibition of Phenol Red (PSP) excretion; assay type: in vivo, rabbit (male)
Description: (a) The action was examined by the method of B. B. Brodie et al. who reported that the inhibitory action on Phenol Red (PSP) excretion correlates with the uricosuric action [Proc. Soc. Exp. Biol. Med., 86, 884 (1954)]. To a male rabbit weighing 2 to 3 kg was intraperitoneally administered the test compound. After 30 minutes, 75 mg/kg of a Phenol Red suspension was injected into the pinna vein of the rabbit and 30 minutes thereafter a blood sample was drawn from the pinna vein. The blood sample was centrifuged and the serum was diluted with physiological saline. The diluted serum was treated with 0.1 N NaOH to develop the color. The concentration of Phenol Red in the serum was determined from the absorbance at 560 mμ.

[7] = system: fever (Mycobacterium butyricum); assay: Antipyretic action; assay type: in vivo, rat (Wistar strain, female); conditions: for ED1.0: po, rat, read-out: ED1.0
Description: A suspension (0.6 mg/0.1 ml) of killed and dried Mycobacterium butyricum in liquid paraffin was subcutaneously injected in an amount of 0.1 ml into the subplantar region of the hind paw of each Wistar strain female rat weighing about 180 g. After 14 hours, the fevered rats were divided into groups, and each test compound was orally administered to each group to examine the antipyretic effect.

in vivo = conditions: rat, po
[8] = system: threshold value of pain due to pressure stimuli (tail); conditions: for Analgesic effect: 100% = threshold raised by 160 g; for ED50: Mus musculus, po
Glomerulonephritis = assay: Action on glomerulonephritis in rats; assay type: in vivo, rat (Wistar strain, male); conditions: 10 mg/kg p.o./day
Text: (ii) Action on glomerulonephritis in rats
Glomerulonephritis was induced in Wistar strain male rats (each weighing 180 to 200 g) by use of an anti-rat's kidney rabbit serum obtained from the serum of a rabbit sensitized with a homogenate of rat's kidney cortice. To the rat producing stable proteinuria was orally administered the test compound repeatedly at the rate shown in Table 12 for 2 weeks, and the inhibition of uric protein was examined.

Row | SMILES | Dye leakage (P.S.B.) mean ± S.E. (Vascular permeability [1]; 5 mg/kg p.o.) [μg/20g] | Dye leakage (P.S.B.) mean ± S.E. (Vascular permeability [1]; 10 mg/kg p.o.) [μg/20g] | Dye leakage (P.S.B.) mean ± S.E. (Vascular permeability [1]; 20 mg/kg p.o.) [μg/20g] | Inhibition (Vascular permeability [1]; 5 mg/kg p.o.) [%] | Inhibition (Vascular permeability [1]; 10 mg/kg p.o.) [%] | Inhibition (Vascular permeability [1]; 20 mg/kg p.o.) [%] | ED30 (Vascular permeability [1]) [mg/kg] | Inhibition (Vascular permeability [2]; 0.5 mg/kg p.o.) [%] | Inhibition (Vascular permeability [2]; 1 mg/kg p.o.) [%] | ED30 (Vascular permeability [2]) [mg/kg] | inhibition in vivo at 1 mg/kg [3] [%] | inhibition in vivo at 5 mg/kg [3] [%] | Inhibitory percent of swelling (Adjuvant arthritis) [%] | Frequency of writhing, mean ± S.E. ([4]; 5 mg/kg p.o.) | Frequency of writhing, mean ± S.E. ([4]; 10 mg/kg p.o.) | Frequency of writhing, mean ± S.E. ([4]; 20 mg/kg p.o.) | inhibition in vivo at 5 mg/kg ([4]; 5 mg/kg p.o.) [%] | inhibition in vivo at 10 mg/kg ([4]; 10 mg/kg p.o.) [%] | inhibition in vivo at 20 mg/kg ([4]; 20 mg/kg p.o.) [%] | ED50 [4] [mg/kg] | also measured
1 | Cc1ccsc1-c1ccc(C(C)C(=O)O)cc1 (racemic) [Racemic compound, dl-2-[4-(3-methyl-2-thienyl)phenyl]propionic acid] | 262.0 ± 21.1 | 211.0 ± 26.0 | 166.8 ± 13.8 | 18.3 | 34.2 | 48.0 | 8.5 | 20.1 | 27.6 | 1.1 | 21.2 | 48.5 | 14.4 | 18.6 ± 4.5 | 11.8 ± 2.4 | 3.3 ± 0.9 | 21.2 | 50 | 86 | 9.7 | Inhibition (Vascular permeability [2]; 5 mg/kg p.o.): 50.1%; Inhibition ([5]; 1 mg/kg p.o.): 44.3%; Inhibition ([5]; 5 mg/kg p.o.): 45.2%; Inhibition ([5]; 25 mg/kg p.o.): 66.9%; ED50 [5]: 6.1 mg/kg; Concentration of PSP in serum, mean ± S.E. ([6]; 10 mg/kg i.p.): 166.7 ± 25.1 µg/mL; Concentration of PSP in serum, mean ± S.E. ([6]; 20 mg/kg i.p.): 249.3 ± 41.4 µg/mL; Mean decrease in temp. ([7]; 0.2 mg/kg p.o.): 0.52 °C; Mean decrease in temp. ([7]; 1 mg/kg p.o.): 1.20 °C; Mean decrease in temp. ([7]; 5 mg/kg p.o.): 1.70 °C; ED1.0 [7]: 0.66 mg/kg; LD50 (in vivo): 248 mg/kg; Analgesic effect ([8]; 2.5 mg/kg p.o.): 33%; Analgesic effect ([8]; 10 mg/kg p.o.): 50%; Analgesic effect ([8]; 40 mg/kg p.o.): 85%; ED50 [8]: 7 mg/kg
2 | Cc1ccsc1-c1ccc(C(C)C(=O)O)cc1 (single isomer, unassigned; isomer d) [d-Isomer, d-2-[4-(3-methyl-2-thienyl)phenyl]propionic acid] | 256.4 ± 15.9 | 218.0 ± 14.3 | 160.4 ± 10.3 | 20.1 | 32.0 | 50.0 | 8.6 | 28.1 | 43.3 | 0.52 | 40 | 57.2 | 21.6 | 14.5 ± 3.5 | 9.9 ± 2.6 | 5.4 ± 1.0 | 38.6 | 58.1 | 77.1 | 7.5 | Inhibition (Vascular permeability [2]; 0.2 mg/kg p.o.): 14.2%; Inhibition ([5]; 1 mg/kg p.o.): 37.1%; Inhibition ([5]; 5 mg/kg p.o.): 48.5%; Inhibition ([5]; 25 mg/kg p.o.): 72.9%; ED50 [5]: 4.4 mg/kg; Concentration of PSP in serum, mean ± S.E. ([6]; 10 mg/kg i.p.): 223.8 ± 3.9 µg/mL; Concentration of PSP in serum, mean ± S.E. ([6]; 20 mg/kg i.p.): 267.3 ± 18.0 µg/mL; Mean decrease in temp. ([7]; 0.2 mg/kg p.o.): 0.82 °C; Mean decrease in temp. ([7]; 1 mg/kg p.o.): 1.18 °C; Mean decrease in temp. ([7]; 5 mg/kg p.o.): 1.63 °C; ED1.0 [7]: 0.44 mg/kg; LD50 (in vivo): 230 mg/kg; Analgesic effect ([8]; 2.5 mg/kg p.o.): 38%; Analgesic effect ([8]; 10 mg/kg p.o.): 61%; Analgesic effect ([8]; 40 mg/kg p.o.): 80%; ED50 [8]: 5.2 mg/kg
3 | CC(=O)OCC(=O)[C@@]1(O)CC[C@H]2[C@@H]3CCC4=CC(=O)CC[C@]4(C)[C@H]3[C@@H](O)C[C@@]21C [Hydrocortisone acetate] | – | – | – | – | – | – | – | – | – | – | – | – | – | – | – | – | – | – | – | – | Inhibition of uric protein (Glomerulonephritis; 7th day): 20.0%; Inhibition of uric protein (Glomerulonephritis; 14th day): 29.0%
